Data from patent US4022912A, “Use of 1-decarboxy-1-hydroxymethyl-PGE1 in therapeutic bronchodilation” (priority 1976, dated 1977).
Read-outs that look alike come from different tables or passages of the source.

Columns and labels:
[1] = test system: Convulsions Induced by Inhaled Histamine; assay: Delay of convulsions induced by inhaled histamine in conscious guinea pigs; type: in vivo, guinea pig
Procedure: Conscious male albino guinea pigs (Dunkin-Hartley strain) weighing 200-300 g were placed (singly) in a 5-liter transparent chamber for 1 minute and subjected to an aerosol of vehicle or test drug in solution, plus histamine (1% w/v).
The time from the beginning of the administration of the aerosol to the start of the first convulsion (when the guinea pig is immediately removed from the aerosol) is the pre-convulsion time. Twenty-four hours later the general procedure was repeated. Guinea pigs treated with the test drug on the first day were treated with vehicle on the second day and vice versa in a cross-over design. Maximum time allowed in the aerosol was 10 minutes. An ultrasonic humidifier was used to produce the aerosol.

tracheal smooth muscle [2] = conditions: isolated from a human; cited from earlier work
bronchodilation = conditions: inhalational administration to guinea pigs; cited from earlier work
[3] = test system: Histamine-Induced Bronchoconstriction; assay: Inhibition of histamine-induced bronchoconstriction in the anesthetized guinea pig in vivo by intravenous administration; conditions: Cavia porcellus, iv, i.v. 15 seconds prior to histamine
Procedure: (§1) Male albino guinea pigs (400-600 g; Dunkin-Hartley Strain) were anesthetized with pentobarbitone sodium (60 mg/kg intraperitoneally).
(§2) Trachea, external jugular vein and carotid artery were cannulated for recording ventilation, intravenous administration of drugs, and blood pressure respectively. The animals were artificially respired throughout the experiment. Electrocardiograms were also recorded. Respiratory flow was charted on a twin-channel recorder fixed to an SE differential pressure transducer.
(§3) Histamine was administered intravenously at 5 minute intervals. The test drug was administered intravenously 15 seconds prior to histamine in order to inhibit bronchoconstriction.

[4] = test system: Histamine-Induced Bronchoconstriction; assay: Inhibition of intravenous histamine-induced bronchoconstriction in the anesthetized guinea pig by inhalational administration; type: in vivo; conditions: 0.001 μg/ml in stock solution aerosolized; inhalation
Procedure: as §1, §2, §3
Details of the procedure of this example are the same as those in preceding Example 2 with the exception that the test compounds were delivered in aerosol form into the trachea of the test aminals.

bronchial smooth muscle = conditions: by inhalation or intravenously; cited from earlier work
[5] = test system: Guinea Pig Tracheal Tissue; assay: Relaxation of guinea pig tracheal tissue in vitro; type: cell-based; conditions: Table B, standard error in parentheses
Procedure: Male guinea pigs weighing 200-500 g were killed by a blow on the head. A 20 mm length of trachea was dissected from each of the animals, transferred to a petri dish containing Krebs' solution aerated with 95% O2 and 5% CO2 at 37° C., and cut longitudinally opposite the tracheal muscle. The tissue was then cut transversely three quarters of the distance across; a second cut in the opposite direction again three quarters of the distance across the tissue was made, and the procedure was continued for the whole tissue. The ends of the trachea were pulled to form a zig-zag shaped strip. The tracheal strips used in the experiment were approximately 30 mm when extended under 0.25-0.5 g load in a tissue bath. Cotton thread was tied to one end of the tissues, and linen thread to the other. The tissues were attached via the linen thread to a glass hook in a 5 ml isolated tissue bath containing Krebs' solution at 37° C. aerated with a mixture of 95% O2 and 5% CO2. The opposite ends were attached via cotton thread to an isotonic transducer. The load on the transducer lever was small, usually 0.3 g, with a range of 0.25-0.5 g; and the magnification high, 80-fold using an appropriate twin-channel pen recorder. A minimum of thirty minutes was allowed before applying a drug to the tissues. Drugs were then applied (in volumes of 0.5 ml) at thirty minute intervals, being in contact with the tissue for five minutes followed by an overflow washout time of twenty seconds.

tracheal smooth muscle [6] = conditions: isolated from a guinea pig; cited from earlier work

CCCCC[C@H](O)/C=C/[C@H]1[C@H](O)CC(=O)[C@@H]1CCCCCCC(=O)O [PGE1, 11α,15α-dihydroxy-9-oxo-13-trans-prostenoic acid]
Prolongation of Preconvulsion Time ([1]; Expt. 1B, 0.50 μg/ml stock solution aerosolized, P <0.1): 77 s
Prolongation of Preconvulsion Time ([1]; Expt. 1B, 2.50 μg/ml stock solution aerosolized, P <0.001): 225 s
Prolongation of Preconvulsion Time ([1]; Expt. 1B, 5.00 μg/ml stock solution aerosolized, N.S. at P ≤ 0.05): 139 s
Prolongation of Preconvulsion Time ([1]; Expt. 1B, 10.00 μg/ml stock solution aerosolized, N.S. at P ≤ 0.05): 267 s
Prolongation of Preconvulsion Time ([1]; Expt. 2B, 0.10 μg/ml stock solution aerosolized, N.S. at P ≤ 0.05): 495 s
Prolongation of Preconvulsion Time ([1]; Expt. 2B, 0.50 μg/ml stock solution aerosolized, P <0.01): 274 s
Prolongation of Preconvulsion Time ([1]; Expt. 2B, 1.00 μg/ml stock solution aerosolized, P <0.01): 294 s
Prolongation of Preconvulsion Time ([1]; Expt. 2B, 5.00 μg/ml stock solution aerosolized, N.S. at P ≤ 0.05): 664 s
relaxation of isolated tracheal smooth muscle (tracheal smooth muscle [2]): relaxes tracheal smooth muscle
bronchodilation compared with isoprenaline (bronchodilation): superior to that induced by isoprenaline
ED50 ([3]; Experiment No. 1, read-out: Dose I.V. inhibiting bronchoconstriction by 50% (ID50)): 0.603 µg/kg
ED50 ([3]; Experiment No. 2, read-out: Dose I.V. inhibiting bronchoconstriction by 50% (ID50)): 0.966 µg/kg
ED50 ([3]; Experiment No. 3, read-out: Dose I.V. inhibiting bronchoconstriction by 50% (ID50)): 0.263 µg/kg
ED50 ([3]; Experiment No. 4, read-out: Dose I.V. inhibiting bronchoconstriction by 50% (ID50)): 0.864 µg/kg
ED50 ([3]; Experiment No. 5, read-out: Dose I.V. inhibiting bronchoconstriction by 50% (ID50)): 0.202 µg/kg
ED50 ([3]; mean of experiments 1-5, read-out: Dose I.V. inhibiting bronchoconstriction by 50% (ID50), Mean): 0.579 µg/kg
Precent Inhibition of Histamine-Induced Bronchoconstriction [4]: 6%
relaxation of bronchial smooth muscle in vivo (bronchial smooth muscle): relaxes bronchial smooth muscle in vivo
Relaxation (×80) (± S.E.) ([5]; 0.001 μg/ml): 0 mm
Relaxation (×80) (± S.E.) ([5]; 0.010 μg/ml): 24 (1) mm
Relaxation (×80) (± S.E.) ([5]; 0.100 μg/ml): 46 (19) mm
Relaxation (×80) (± S.E.) ([5]; 1.000 μg/ml): 75 (17) mm
Relaxation (×80) (± S.E.) ([5]; 10.000 μg/ml): 75 (65) mm
relaxation of isolated tracheal smooth muscle (tracheal smooth muscle [6]): relaxes tracheal smooth muscle
